Experimental findings from ChEMBL document CHEMBL3865788, “Synthesis, characterization and interaction studies of 1,3,4-oxadiazole derivatives of fatty acid with human serum albumin (HSA): A combined multi-spectroscopic and molecular docking study” (Eur J Med Chem, 2016) are described below.

Format in all cases: ADME
What all share (conditions): isolated protein

The target in data set [1] is T1, Albumin (Homo sapiens, UniProt P02768). Description: Binding affinity to human serum albumin assessed as Stern-Volmer quenching constant in steady state at 298K and pH 7.4 by fluorescence spectroscopy.
The target in data set [2] is T1, Albumin. Description: Binding affinity to human serum albumin assessed as binding constant in steady state at 298K and pH 7.4 by fluorescence spectroscopy.
Data set [3] concerns the target T1, Albumin. As to the kind of experiment: Binding affinity to human serum albumin assessed as quenching constant in steady state at 298K and pH 7.4 by fluorescence spectroscopy.
For data set [4], the target named is T1, Albumin. Description: Binding affinity to human serum albumin assessed as absorbance at 280 nanometer at 50 and 100 uM by UV-vis spectroscopy.

T1 sequence (P02768 whole entry): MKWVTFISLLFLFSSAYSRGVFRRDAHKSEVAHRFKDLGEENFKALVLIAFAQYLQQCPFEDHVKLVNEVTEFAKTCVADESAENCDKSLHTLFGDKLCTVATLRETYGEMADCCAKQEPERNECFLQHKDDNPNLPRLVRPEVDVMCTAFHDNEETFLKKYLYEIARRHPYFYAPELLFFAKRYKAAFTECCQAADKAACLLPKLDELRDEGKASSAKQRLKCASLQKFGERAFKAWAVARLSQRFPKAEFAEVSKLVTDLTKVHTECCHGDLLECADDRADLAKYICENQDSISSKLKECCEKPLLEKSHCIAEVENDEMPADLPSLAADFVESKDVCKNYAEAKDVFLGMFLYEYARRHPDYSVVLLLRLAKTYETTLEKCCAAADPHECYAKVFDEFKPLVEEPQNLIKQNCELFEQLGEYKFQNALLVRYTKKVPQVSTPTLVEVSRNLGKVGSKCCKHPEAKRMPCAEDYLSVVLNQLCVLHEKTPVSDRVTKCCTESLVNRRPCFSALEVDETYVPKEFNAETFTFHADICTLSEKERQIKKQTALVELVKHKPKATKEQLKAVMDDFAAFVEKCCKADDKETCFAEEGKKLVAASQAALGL

`CCCCCCCC/C=C\CCCCCCCc1nnc(C)o1`: the KSV on Albumin [1] is recorded as 3.6 ×10³ /M. Moreover, the Kb at Albumin [2] amounted to 2.95 ×10³ /M. For the same compound, the Kq on Albumin [3] is recorded as 6.4 ×10¹¹ /M/s. Further, the Activity at Albumin [4] was less than 0.03.
